According to patent US8518903B2, “Use of toll-like receptor-9 agonists” (University of Pittsburgh—of the Commonwealth System of …, priority 2007, dated 2013):

Columns and labels:
[1] = test system: murine model of endotoxemia; test: Enterocyte apoptosis (caspase 3) in murine model of endotoxemia; format: in vivo, mouse; details: 5 mg/kg LPS + 1 mg/kg CpG-DNA vs LPS, 3 hours
Experimental: (A) Control mice (injected with saline). (B) Mice injected with 5 mg/kg of LPS. (C) Mice injected with 5 mg/kg of LPS and 1 mg/kg of CpG. (D-G) Immunohistochemical staining of terminal ileum from newborn mice that were either breast fed (“control”) or induced to develop NEC (“NEC”). Sections were stained for caspase 3 as a marker of apoptosis and enterocyte loss; positive staining is indicated by a small arrowhead. (D) Control injected with saline. (E) NEC injected with saline. (F) Control injected with 1 mg/kg CpG-DNA daily for four days. (G) NEC injected with 1 mg/kg CpG-DNA daily for four days. (H) Bar graph summarizing results, showing percent apoptosis in terminal ileum as depicted in (D)-(G).
Induction of necrotizing enterocolitis. All mice were housed and cared for at Rangos Research Center, Children's Hospital of Pittsburgh. All experiments were approved by the Children's Hospital of Pittsburgh Animal Care Committee and the Institutional Review Board of the University of Pittsburgh (protocol 45-06). Swiss-Webster (CfW) and C57/B1-6 mice were obtained from Jackson Laboratories (Jackson Laboratory, Bar Harbor, Me.). Endotoxemia was induced in 2 week old C57/B16 or CpG1 (TLR9-mutant) mice by the intraperitoneal injection of LPS (Escherichia coli 0111:B4 purified by gel-filtration chromatography, >99% pure, 5 mg/kg, Sigma-Aldrich, St. Louis, Mo.). […]

enterocytes = test: LPS-mediated cytokine (IL-6) release from enterocytes; format: cell-based; details: 50 μg/ml LPS + 10 μM CpG
Experimental: FIG. 8. CpG-DNA reduces LPS-mediated cytokine release from enterocytes. Bar graph showing the level of supernatant IL-6 in enterocytes which were either untreated (“CTRL”) or treated with 50 μg/ml LPS, 50 m/ml LPS+10 μM CpG, or 10 μM CpG.

5′-TCCATGACGTTCCTGACGTT-3′ [CpG-DNA]
apoptosis in enterocytes of terminal ileum (caspase 3) [1]: substantially reduced
LPS-mediated cytokine release (supernatant IL-6) (enterocytes): reduces
